Measurements: paper PMC3752901 (Clinical cancer research : an official journal of the …, 2013)

What was measured:
[1] = Plasma pharmacokinetics in wildtype and Abcc4; settings: for clearance / Cmax / Tmax: male, C57BL/6, mouse, plasma, 10 mg/kg; for clearance: CL
ABCC3 (MRP3) = ABCC3 (MRP3) (Homo sapiens, UniProt O15438); assay: Uptake into inside-out Sf9 vesicles expressing ABCC3; type: in vitro ADME; settings: same experimental conditions as ABCC4 vesicles
mOct1 = target: T1, mOct1 (Mus musculus, UniProt O08966); assay: Uptake in HEK293 cells expressing mOct1; type: in vitro ADME; settings: HEK293, 1 μM
T1 sequence (O08966 1-556): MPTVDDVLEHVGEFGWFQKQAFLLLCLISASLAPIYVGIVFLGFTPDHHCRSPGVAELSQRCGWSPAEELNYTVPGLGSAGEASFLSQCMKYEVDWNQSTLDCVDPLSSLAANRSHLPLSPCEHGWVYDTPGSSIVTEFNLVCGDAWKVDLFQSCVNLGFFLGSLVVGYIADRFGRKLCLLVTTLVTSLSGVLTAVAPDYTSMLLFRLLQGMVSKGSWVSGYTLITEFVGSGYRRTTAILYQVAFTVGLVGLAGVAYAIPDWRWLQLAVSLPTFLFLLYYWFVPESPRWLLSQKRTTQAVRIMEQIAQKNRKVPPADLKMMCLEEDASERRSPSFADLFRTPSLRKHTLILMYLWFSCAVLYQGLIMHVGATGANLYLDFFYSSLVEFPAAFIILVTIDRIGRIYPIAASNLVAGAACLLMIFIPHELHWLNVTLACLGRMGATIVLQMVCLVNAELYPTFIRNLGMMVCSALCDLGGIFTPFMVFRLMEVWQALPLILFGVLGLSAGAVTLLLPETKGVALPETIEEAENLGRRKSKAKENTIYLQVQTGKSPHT

human ABCC4 = target: T2, human ABCC4 (Homo sapiens, UniProt O15439); settings: 5 min, 1 μM
T2 sequence (O15439 1-1325): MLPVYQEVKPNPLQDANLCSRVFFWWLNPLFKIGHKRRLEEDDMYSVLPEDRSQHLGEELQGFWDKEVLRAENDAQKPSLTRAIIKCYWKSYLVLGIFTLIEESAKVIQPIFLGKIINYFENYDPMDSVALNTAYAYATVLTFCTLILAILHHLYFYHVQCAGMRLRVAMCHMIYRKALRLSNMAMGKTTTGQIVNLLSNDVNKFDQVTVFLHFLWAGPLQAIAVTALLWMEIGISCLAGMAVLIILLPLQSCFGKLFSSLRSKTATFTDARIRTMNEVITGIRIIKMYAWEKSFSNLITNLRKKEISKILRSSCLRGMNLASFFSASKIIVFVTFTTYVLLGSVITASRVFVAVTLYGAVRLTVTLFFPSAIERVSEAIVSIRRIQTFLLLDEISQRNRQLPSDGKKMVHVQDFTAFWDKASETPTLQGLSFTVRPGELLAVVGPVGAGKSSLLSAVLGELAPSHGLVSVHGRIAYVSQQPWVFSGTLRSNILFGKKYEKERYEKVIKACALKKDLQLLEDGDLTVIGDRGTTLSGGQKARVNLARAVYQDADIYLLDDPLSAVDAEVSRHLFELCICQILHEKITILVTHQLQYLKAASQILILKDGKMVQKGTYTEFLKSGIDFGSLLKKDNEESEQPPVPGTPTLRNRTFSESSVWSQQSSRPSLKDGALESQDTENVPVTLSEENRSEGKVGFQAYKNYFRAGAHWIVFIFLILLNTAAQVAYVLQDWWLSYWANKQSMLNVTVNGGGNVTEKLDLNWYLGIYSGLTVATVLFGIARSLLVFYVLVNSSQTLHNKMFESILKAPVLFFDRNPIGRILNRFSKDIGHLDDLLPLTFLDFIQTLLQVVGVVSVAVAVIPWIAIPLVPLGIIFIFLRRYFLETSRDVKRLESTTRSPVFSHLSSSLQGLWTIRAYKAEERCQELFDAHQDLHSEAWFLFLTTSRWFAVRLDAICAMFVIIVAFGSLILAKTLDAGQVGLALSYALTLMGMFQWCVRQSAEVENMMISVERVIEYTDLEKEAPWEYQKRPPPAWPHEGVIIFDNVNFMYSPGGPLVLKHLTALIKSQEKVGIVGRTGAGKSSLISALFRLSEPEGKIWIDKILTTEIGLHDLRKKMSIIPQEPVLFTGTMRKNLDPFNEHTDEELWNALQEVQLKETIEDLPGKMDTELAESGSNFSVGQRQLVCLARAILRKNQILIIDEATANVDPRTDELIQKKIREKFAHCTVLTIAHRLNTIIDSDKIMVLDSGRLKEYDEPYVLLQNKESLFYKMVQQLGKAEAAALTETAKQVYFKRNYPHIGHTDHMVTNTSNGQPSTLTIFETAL

[2] = human, oral administration; cited from earlier work
[3] = iv, i.v. 10 mg/kg, Abcc4(−/−) mice
[4] = iv, i.v. 10 mg/kg, wildtype mice
[5] = po, oral 10 mg/kg, Abcc4(−/−) mice
[6] = po, oral 10 mg/kg, wildtype mice

Chain of ABCC3 (MRP3) (O15438 whole entry): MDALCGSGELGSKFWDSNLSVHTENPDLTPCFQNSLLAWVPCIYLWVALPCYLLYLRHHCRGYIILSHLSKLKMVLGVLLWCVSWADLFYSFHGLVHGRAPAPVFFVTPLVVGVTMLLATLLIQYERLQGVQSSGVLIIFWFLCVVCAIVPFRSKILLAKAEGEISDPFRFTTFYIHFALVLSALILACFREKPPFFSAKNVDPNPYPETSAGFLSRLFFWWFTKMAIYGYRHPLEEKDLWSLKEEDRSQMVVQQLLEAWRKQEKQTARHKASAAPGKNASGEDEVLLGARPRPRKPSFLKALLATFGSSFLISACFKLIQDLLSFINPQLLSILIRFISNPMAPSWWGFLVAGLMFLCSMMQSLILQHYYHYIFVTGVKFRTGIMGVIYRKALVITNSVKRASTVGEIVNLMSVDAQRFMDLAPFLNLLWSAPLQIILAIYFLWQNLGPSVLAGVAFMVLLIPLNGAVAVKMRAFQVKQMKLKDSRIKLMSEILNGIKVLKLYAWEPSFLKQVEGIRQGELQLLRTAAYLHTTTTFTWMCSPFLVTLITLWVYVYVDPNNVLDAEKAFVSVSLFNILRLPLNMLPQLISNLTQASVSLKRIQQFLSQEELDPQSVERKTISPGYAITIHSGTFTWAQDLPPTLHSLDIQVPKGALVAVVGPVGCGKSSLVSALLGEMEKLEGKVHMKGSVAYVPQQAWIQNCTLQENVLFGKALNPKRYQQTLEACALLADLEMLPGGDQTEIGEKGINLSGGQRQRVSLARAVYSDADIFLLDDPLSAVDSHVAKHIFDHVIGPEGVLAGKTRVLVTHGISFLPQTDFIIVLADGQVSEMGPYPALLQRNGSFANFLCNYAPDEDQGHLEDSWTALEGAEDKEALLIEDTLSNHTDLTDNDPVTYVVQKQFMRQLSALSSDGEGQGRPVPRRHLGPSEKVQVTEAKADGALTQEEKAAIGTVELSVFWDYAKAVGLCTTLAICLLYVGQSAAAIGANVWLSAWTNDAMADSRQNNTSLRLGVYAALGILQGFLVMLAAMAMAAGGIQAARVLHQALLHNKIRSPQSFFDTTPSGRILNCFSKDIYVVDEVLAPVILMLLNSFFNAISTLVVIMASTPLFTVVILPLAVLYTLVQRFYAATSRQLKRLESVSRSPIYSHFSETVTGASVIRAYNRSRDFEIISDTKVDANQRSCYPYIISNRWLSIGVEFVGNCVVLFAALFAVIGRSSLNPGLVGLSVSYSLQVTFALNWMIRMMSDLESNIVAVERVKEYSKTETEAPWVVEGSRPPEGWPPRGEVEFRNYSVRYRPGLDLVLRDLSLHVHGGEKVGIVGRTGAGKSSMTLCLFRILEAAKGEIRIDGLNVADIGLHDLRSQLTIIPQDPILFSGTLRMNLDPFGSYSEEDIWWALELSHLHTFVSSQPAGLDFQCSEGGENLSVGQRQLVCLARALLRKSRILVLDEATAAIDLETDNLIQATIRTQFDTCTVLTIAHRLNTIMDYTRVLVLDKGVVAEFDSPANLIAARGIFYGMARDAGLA

## Cc1nc(Nc2ncc(C(=O)Nc3c(C)cccc3Cl)s2)cc(N2CCN(CCO)CC2)n1 [dasatinib, Dasatinib]
[1]; [3]
  clearance: 41.9 mL/min/kg
  Cmax: 3460 ng/mL
[1]; [4]
  clearance: 49.6 mL/min/kg
  Cmax: 3390 ng/mL
[1]; [5]
  Cmax: 48.1 ± 16.5 ng/mL
  Tmax: 2.19 ± 1.06 h
[1]; [6]
  Cmax: 182 ± 93.8 ng/mL
  Tmax: 0.306 ± 0.223 h
[1]; oral 10 mg/kg, Abcc4(−/−) mice
  Ka: 2.49 ± 0.92 h⁻¹
[1]; oral 10 mg/kg, wildtype mice
  Ka: 34.3 ± 6.85 h⁻¹
ABCC3 (MRP3)
  accumulation in ABCC3 vesicles compared to control: 1.3 fold
mOct1
  intracellular accumulation on overexpression of Oct1: did not alter intracellular accumulation
Human ABCC4
  accumulation in ABCC4-overexpressing vesicles compared to control vesicles: 3.0 fold
[2]
  unchanged drug as share of the dose recovered in feces: 19%
  unchanged drug as share of the dose recovered in urine: less than 1%
